This experiment deals with human Kv1.3 (Homo sapiens (Human), UniProt P22001). Nature of the experiment: Kv1.3 potency evaluation, automated patch clamp electrophysiology (QPatch HT) in CHO-Kv1.3 cells. Format: cell-based. The following applies: whole-cell QPatch HT, % inhibition of charge, step to +30 mV, four concentrations, N≥3 cells, read-out: hKv1.3 IC50. In a few lines:
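Automated whole-cell patch clamp in CHO cells stably expressing human Kv1.3; steps from −80 to +30 mV (500 ms) at 0.067 Hz. Four cumulative concentrations after vehicle (0.1-0.3% DMSO); charge inhibition vs vehicle fitted by four-parameter logistic for IC50, N≥3 cells.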

Sequence of human Kv1.3 (P22001 whole entry): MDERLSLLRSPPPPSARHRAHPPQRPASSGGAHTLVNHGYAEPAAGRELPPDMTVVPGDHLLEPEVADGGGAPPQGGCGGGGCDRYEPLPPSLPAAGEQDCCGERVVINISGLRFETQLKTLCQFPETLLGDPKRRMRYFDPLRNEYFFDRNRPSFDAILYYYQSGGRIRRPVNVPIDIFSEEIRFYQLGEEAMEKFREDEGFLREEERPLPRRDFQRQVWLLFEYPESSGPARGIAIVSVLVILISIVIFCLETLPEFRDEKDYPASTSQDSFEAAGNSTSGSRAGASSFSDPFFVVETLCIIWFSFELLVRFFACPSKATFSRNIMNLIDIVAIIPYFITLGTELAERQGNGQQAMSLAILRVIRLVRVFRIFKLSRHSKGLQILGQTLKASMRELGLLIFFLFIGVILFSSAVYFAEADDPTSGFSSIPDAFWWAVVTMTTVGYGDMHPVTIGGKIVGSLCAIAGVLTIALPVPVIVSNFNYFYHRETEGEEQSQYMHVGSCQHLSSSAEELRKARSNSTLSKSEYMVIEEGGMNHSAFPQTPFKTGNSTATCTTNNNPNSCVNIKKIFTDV

For orientation: IC50 means the concentration needed to halve the response being measured. Take `C[C@@H](NC(=O)[C@@H]1NC(C23CC(N(Cc4ccc(Cl)c(F)c4)S(=O)(=O)c4ccccc4)(C2)C3)=NC1(C)C)C(F)(F)F` (mixture of isomers) [Example 34]: the concentration for half-maximal inhibition (IC50) turned out to be 47 nM.

With `CN(C(=O)[C@@H]1NC(C23CC(N(Cc4ccc(Cl)c(F)c4)S(=O)(=O)c4ccccc4)(C2)C3)=NC1(C)C)C12CC(C1)C2` (mixture of isomers) [Example 33], the half-inhibitory concentration (IC50) worked out at 43 nM.

As for `CC1(C)N=C(C23CC(N(Cc4ccc(Cl)cc4)S(=O)(=O)CCCC(F)(F)F)(C2)C3)N[C@H]1C(=O)NCCC(F)(F)F` (mixture of isomers) [Example 206], the IC50 stood at 137 nM.

For the compound `CC1(C)N=C(C23CC(N(Cc4ccc(Cl)c(Cl)c4)S(=O)(=O)c4ccccc4)(C2)C3)N[C@H]1C(=O)NCC(F)(F)C(F)(F)F` [Example 5], the IC50 worked out at 138 nM.

For the compound `CC1(C)N=C(C23CC(N(Cc4ccc(Cl)c(Cl)c4)S(=O)(=O)CCCF)(C2)C3)N[C@H]1C(=O)NCC(F)(F)C(F)(F)F` (mixture of isomers) [Example 142], the IC50 was determined as 84 nM.

As for `CC1(C)N=C(C23CC(N(Cc4ccc(Cl)c(Cl)c4)S(=O)(=O)c4ccccc4)(C2)C3)N[C@H]1C(=O)N1CCC2(C1)CC(F)(F)C2` (mixture of isomers) [Example 116], the 50% inhibitory concentration (IC50) was determined as 73 nM.

Regarding `CN(CC(C)(C)F)C(=O)[C@@H]1NC(C23CC(N(Cc4ccc(Cl)c(F)c4)S(=O)(=O)c4ccccc4)(C2)C3)=NC1(C)C` (mixture of isomers) [Example 95], the IC50 amounted to 64 nM.

Regarding `CC1(C)N=C(C23CC(N(Cc4ccc(Cl)cc4)S(=O)(=O)c4cc(C(F)(F)F)ccc4O)(C2)C3)N[C@H]1C(=O)NCCC(F)(F)F` (mixture of isomers) [Example 286], the concentration for half-maximal inhibition (IC50) was 859 nM.

In the case of `CC(C)NC(=O)[C@]1(C)CN=C(C23CC(N(Cc4ccc(C(F)(F)F)cc4)S(=O)(=O)c4ccc(F)cc4)(C2)C3)N1` (mixture of isomers) [Example 196], the IC50 is 125 nM.

Turning to `CC1(C)N=C(C23CC(N(Cc4ccc(Cl)c(Cl)c4)S(=O)(=O)c4ccccc4)(C2)C3)N[C@H]1C(=O)NC1CC1C(F)(F)F` (mixture of isomers) [Example 160], the 50% inhibitory concentration (IC50) is 97 nM.

As for `CC1(C)N=C(C23CC(N(Cc4ccc(Cl)c(F)c4)S(=O)(=O)c4ccccc4)(C2)C3)N[C@H]1C(=O)NC1CC(C(F)F)C1` (mixture of isomers) [Example 84], the concentration for half-maximal inhibition (IC50) was found to be 61 nM.

As to `CC1(C)N=C(C23CC(N(Cc4ccc(Cl)c(F)c4)S(=O)(=O)c4ccccc4)(C2)C3)N[C@H]1C(=O)N1CCC(F)CC1` (mixture of isomers) [Example 124], the IC50 came out at 75 nM.

With `CN(C)C(=O)[C@H]1CN=C(C23CC(N(Cc4ccc(C(F)(F)F)cc4)S(=O)(=O)c4ccc(F)cc4)(C2)C3)N1` [Example 277], the IC50 was determined as 593 nM.

In the case of `CC(F)(F)CNC(=O)[C@@H]1NC(C23CC(N(Cc4ccc(Cl)c(F)c4)S(=O)(=O)c4ccccc4)(C2)C3)=NC1(C)C` (mixture of isomers) [Example 15], the 50% inhibitory concentration (IC50) came out at 33 nM.

With `CN(C)C(=O)[C@@]1(C)CN=C(C23CC(N(Cc4ccc(C(F)(F)F)cc4)S(=O)(=O)c4ccc(F)cc4)(C2)C3)N1` (mixture of isomers) [Example 269], the IC50 stood at 481 nM.

Take `CC1(C)N=C(C23CC(N(Cc4ccc(Cl)cc4)S(=O)(=O)c4ccccc4)(C2)C3)N[C@H]1C(=O)NC1CC(C(F)F)C1` (mixture of isomers) [Example 45]: the IC50 is 46 nM.

`CN(CCC(F)(F)F)C(=O)[C@@H]1NC(C23CC(N(Cc4ccc(Cl)c(Cl)c4)S(=O)(=O)CCC(C)(F)F)(C2)C3)=NC1(C)C` (mixture of isomers) [Example 117]: the half-maximal inhibitory concentration (IC50) is 73 nM.

For `CCCS(=O)(=O)N(Cc1ccc(Cl)c(Cl)c1)C12CC(C3=NC(C)(C)[C@H](C(=O)NC45CC(C4)C5)N3)(C1)C2` (mixture of isomers) [Example 32], the half-inhibitory concentration (IC50) was determined as 43 nM.

On to `CC1(C)N=C(C23CC(N(Cc4ccc(Cl)c(F)c4)S(=O)(=O)c4ccccc4)(C2)C3)N[C@H]1C(=O)N1CCC12CCC2` (mixture of isomers) [Example 30], for which the IC50 came out at 41 nM.

`CC1(C)N=C(C23CC(N(Cc4ccc(Cl)c(F)c4)S(=O)(=O)c4ccccc4)(C2)C3)N[C@H]1C(=O)N1CC(F)(F)C1` (mixture of isomers) [Example 55]: the IC50 came to 50 nM.

As to `CC1(C)N=C(C23CC(N(Cc4ccc(Cl)c(F)c4)S(=O)(=O)c4ccccc4)(C2)C3)N[C@H]1C(=O)NC1CC1C(F)(F)F` (mixture of isomers) [Example 75], the 50% inhibitory concentration (IC50) was 59 nM.

For `CN(CCC(F)(F)F)C(=O)[C@@H]1NC(C23CC(N(Cc4ccc(Cl)c(Cl)c4)S(=O)(=O)c4ccccc4)(C2)C3)=NC1(C)C` (mixture of isomers) [Example 147], the half-maximal inhibitory concentration (IC50) was determined as 88 nM.

For the compound `CC1(C)N=C(C23CC(N(Cc4ccc(Cl)cc4)S(=O)(=O)C4CCOCC4)(C2)C3)N[C@H]1C(=O)NCCC(F)(F)F` (mixture of isomers) [Example 272], the IC50 is 524 nM.

Consider `CC1(C)N=C(C23CC(N(Cc4ccc(C(F)(F)F)cc4)S(=O)(=O)c4ccc(F)cc4)(C2)C3)N[C@H]1C(=O)NCC1(F)CCC1` [Example 145], for which the concentration for half-maximal inhibition (IC50) was 88 nM.

Consider `CC1(C)N=C(C23CC(N(Cc4ccc(C(F)(F)F)cc4)S(=O)(=O)c4ccc(F)cc4)(C2)C3)NC1C(=O)NCC1CC(F)(F)C1` (stereo not shown) [Example 186], for which the IC50 worked out at 110 nM.

As to `CC1(C)N=C(C23CC(N(Cc4ccc(Cl)cc4)S(=O)(=O)c4ncc[nH]4)(C2)C3)N[C@H]1C(=O)NCCC(F)(F)F` (mixture of isomers) [Example 291], the IC50 was 1120 nM.

Consider `C[C@@H]1CCN(C(=O)[C@@H]2NC(C34CC(N(Cc5ccc(Cl)c(F)c5)S(=O)(=O)c5ccccc5)(C3)C4)=NC2(C)C)C1` (mixture of isomers) [Example 64], for which the IC50 amounted to 52 nM.

`CC1(CNC(=O)[C@@]2(C)CN=C(C34CC(N(Cc5ccc(C(F)(F)F)cc5)S(=O)(=O)c5ccc(F)cc5)(C3)C4)N2)CCC1` (mixture of isomers) [Example 267]: the IC50 was 424 nM.

In the case of `CC1(C)N=C(C23CC(N(Cc4ccc(Cl)c(Cl)c4)S(=O)(=O)c4ccccc4)(C2)C3)N[C@H]1C(=O)NCC1CC(F)(F)C1` (mixture of isomers) [Example 47], the IC50 is 47 nM.

On to `CC1(C)N=C(C23CC(N(Cc4ccc(Cl)cc4)S(=O)(=O)c4cccnc4)(C2)C3)N[C@H]1C(=O)NCCC(F)(F)F` (mixture of isomers) [Example 110], for which the concentration for half-maximal inhibition (IC50) was 72 nM.

As for `CN(CC1CC(F)(F)C1)C(=O)[C@@H]1NC(C23CC(N(Cc4ccc(Cl)c(Cl)c4)S(=O)(=O)c4ccccc4)(C2)C3)=NC1(C)C` (mixture of isomers) [Example 113], the IC50 came to 72 nM.

As for `CC1(C)N=C(C23CC(N(Cc4ccc(F)cc4)S(=O)(=O)c4ccccc4)(C2)C3)N[C@H]1C(=O)NCCC(F)(F)F` (mixture of isomers) [Example 23], the IC50 came out at 40 nM.

Regarding `CC1(C)N=C(C23CC(N(Cc4ccc(Cl)c(F)c4)S(=O)(=O)c4ccccc4)(C2)C3)N[C@H]1C(=O)NCC1CC(F)(F)C1` (mixture of isomers) [Example 63], the IC50 worked out at 52 nM.

For the compound `CC(C)NC(=O)[C@@]1(C)CN=C(C23CC(N(Cc4ccccc4)S(=O)(=O)c4ccc(F)cc4)(C2)C3)N1` (mixture of isomers) [Example 243], the 50% inhibitory concentration (IC50) was 251 nM.

Regarding `CCCS(=O)(=O)N(Cc1ccc(Cl)c(Cl)c1)C12CC(C3=NC(C)(C)[C@H](C(=O)N4C5CCC4CC(F)(F)C5)N3)(C1)C2` (mixture of isomers) [Example 190], the 50% inhibitory concentration (IC50) came out at 113 nM.

For the compound `CC1(C)N=C(C23CC(N(Cc4ccc(Cl)c(F)c4)S(=O)(=O)c4ccccc4)(C2)C3)N[C@H]1C(=O)NC1CCC1` (mixture of isomers) [Example 60], the IC50 was determined as 51 nM.

As for `CC1N=C(C23CC(N(Cc4ccc(C(F)(F)F)cc4)S(=O)(=O)c4ccc(F)cc4)(C2)C3)N[C@@]1(C)C(=O)NCCC(F)(F)F` (mixture of isomers) [Example 265], the IC50 turned out to be 408 nM.

As to `CC1(C)N=C(C23CC(N(Cc4ccc(Cl)c(F)c4)S(=O)(=O)c4ccccc4)(C2)C3)N[C@H]1C(=O)NCCC1(C(F)(F)F)CC1` (mixture of isomers) [Example 149], the IC50 worked out at 89 nM.

On to `CC1(C)N=C(C23CC(N(Cc4ccc(Cl)c(F)c4)S(=O)(=O)c4ccccc4)(C2)C3)N[C@H]1C(=O)N1CCC12CC(F)(F)C2` (mixture of isomers) [Example 94], for which the IC50 was 64 nM.

Consider `CC(C)(F)CNC(=O)[C@@H]1NC(C23CC(N(Cc4ccc(Cl)c(Cl)c4)S(=O)(=O)c4ccccc4)(C2)C3)=NC1(C)C` (mixture of isomers) [Example 28], for which the IC50 was determined as 40 nM.

As for `CC1(C)N=C(C23CC(N(Cc4ccc(Cl)c(F)c4)S(=O)(=O)c4ccccc4)(C2)C3)N[C@H]1C(=O)N1CC[C@H](C(F)(F)F)C1` (mixture of isomers) [Example 171], the IC50 worked out at 102 nM.

As to `CC1(C)N=C(C23CC(N(Cc4ccc(Cl)c(F)c4)S(=O)(=O)c4ccccc4)(C2)C3)N[C@H]1C(=O)NC1CCC(F)(F)CC1` (mixture of isomers) [Example 104], the IC50 was 69 nM.

`C[C@@]1(C(=O)NCC2CCC2)CN=C(C23CC(N(Cc4ccc(C(F)(F)F)cc4)S(=O)(=O)c4ccc(F)cc4)(C2)C3)N1` (mixture of isomers) [Example 247]: the IC50 turned out to be 262 nM.

Turning to `C[C@]1(C(=O)N2CCCCC2)CN=C(C23CC(N(Cc4ccc(C(F)(F)F)cc4)S(=O)(=O)c4ccc(F)cc4)(C2)C3)N1` (mixture of isomers) [Example 244], the half-inhibitory concentration (IC50) was 252 nM.

As for `CC1(C)N=C(C23CC(N(Cc4ccc(Cl)cc4)S(=O)(=O)C4CCCCC4)(C2)C3)N[C@H]1C(=O)NCCC(F)(F)F` (mixture of isomers) [Example 42], the IC50 was 46 nM.

Turning to `CC1(C)N=C(C23CC(N(Cc4ccc(Cl)c(F)c4)S(=O)(=O)c4ccccc4)(C2)C3)N[C@H]1C(=O)N1CCCC(F)(F)CC1` (mixture of isomers) [Example 131], the half-maximal inhibitory concentration (IC50) turned out to be 78 nM.

The values are drawn from patent US12128028B2, “Heterocyclic sulfonamide derivatives and pharmaceutical uses thereof” (METRION BIOSCIENCES LIMITED, priority 2018, dated 2024).
